Assay results published in ChEMBL document CHEMBL5154682, “TDP-43 Modulation by Tau-Tubulin Kinase 1 Inhibitors: A New Avenue for Future Amyotrophic Lateral Sclerosis Therapy” (J Med Chem, 2022).
The source made the active and inactive calls. The calls are words filed in the database; no cut-off is given here.

What was measured:
[1] = Permeability of the compound at pH 7.4 PBS/EtOH buffer (70:30) by PAMPA-BBB assay
SH-SY5Y [2] = experiment: Neuroprotective activity against ethacrynic acid-induced neurotoxicity human SH-SY5Y cells assessed as increase in cell viability at 5 uM preincubated for 1 hr followed by ethacrynic acid addition and further incubated for 24 hrs by MTT assay; type: functional, cell-based; settings: time 25.0 hrs
SH-SY5Y [3] = experiment: Neuroprotective activity against ethacrynic acid-induced neurotoxicity human SH-SY5Y cells assessed as decrease in TDP-43 phosphorylation at Ser409 at 5 uM preincubated for 1 hr followed by EA addition and further incubated for 24 hrs by Western blot analysis; type: functional, cell-based; settings: time 25.0 hrs
SH-SY5Y [4] = experiment: Neuroprotective activity against okadaic acid-induced neurotoxicity in human SH-SY5Y cells assessed as reduction in Tau hyperphosphorylation by measuring cell viability at 1 to 5 uM incubated for 24 hrs by MTT assay; type: functional, cell-based; settings: dose 1-5 µM
[5] = target: Tau tubulin kinase 1 (Rattus norvegicus) (UniProt A0A0G2JTK1); experiment: Inhibition of TTBK1 in Wistar rat primary microglia assessed as reduction in LPS-stimulated iNOS induction at 5 to 25 uM measured after 24 hrs by western blot analysis; type: cell-based; settings: dose 5-25 µM
[6] = Tmax in BALB/c mouse plasma at 5 mg/kg, ip measured for 0.08 to 24 hrs by LC-MS/MS analysis; type: ADME, organism-based; settings: time 0.08-24 hrs
[7] = Tmax in BALB/c mouse brain at 5 mg/kg, ip measured for 0.08 to 24 hrs by LC-MS/MS analysis; type: ADME, organism-based; settings: time 0.08-24 hrs
[8] = Tmax in BALB/c mouse plasma at 10 mg/kg, po measured for 0.25 to 24 hrs by LC-MS/MS analysis; type: ADME, organism-based; settings: time 0.25-24 hrs
[9] = Tmax in BALB/c mouse brain at 10 mg/kg, po measured for 0.25 to 24 hrs by LC-MS/MS analysis; type: ADME, organism-based; settings: time 0.25-24 hrs
[10] = Cmax in BALB/c mouse plasma at 5 mg/kg, ip measured for 0.08 to 24 hrs by LC-MS/MS analysis; type: ADME, organism-based; set-up: dose 5 mg/kg, time 0.08-24 hrs, route ip
[11] = Cmax in BALB/c mouse brain at 5 mg/kg, ip measured for 0.08 to 24 hrs by LC-MS/MS analysis; type: ADME, organism-based; set-up: dose 5 mg/kg, time upper 24 hrs, time lower 0.08 hrs, route ip
[12] = Cmax in BALB/c mouse plasma at 10 mg/kg, po measured for 0.25 to 24 hrs by LC-MS/MS analysis; type: ADME, organism-based; set-up: time upper 24 hrs, time lower 0.25 hrs, dose 10 mg/kg, route po
[13] = Cmax in BALB/c mouse brain at 10 mg/kg, po measured for 0.25 to 24 hrs by LC-MS/MS analysis; type: ADME, organism-based; set-up: dose 10 mg/kg, time upper 24 hrs, time lower 0.25 hrs, route po
[14] = Half life in BALB/c mouse plasma at 5 mg/kg, ip measured for 0.08 to 24 hrs by LC-MS/MS analysis; type: ADME, organism-based; settings: time 0.08-24 hrs
[15] = AUClast in BALB/c mouse plasma at 5 mg/kg, ip measured for 0.08 to 24 hrs by LC-MS/MS analysis; type: ADME, organism-based; set-up: dose 5 mg/kg, time 0.08-24 hrs, route ip
[16] = AUClast in BALB/c mouse brain at 5 mg/kg, ip measured for 0.08 to 24 hrs by LC-MS/MS analysis; type: ADME, organism-based; set-up: dose 5 mg/kg, time 0.08-24 hrs, route ip
[17] = AUClast in BALB/c mouse plasma at 10 mg/kg, po measured for 0.25 to 24 hrs by LC-MS/MS analysis; type: ADME, organism-based; set-up: dose 10 mg/kg, time upper 24 hrs, time lower 0.25 hrs, route po
[18] = AUClast in BALB/c mouse brain at 10 mg/kg, po measured for 0.25 to 24 hrs by LC-MS/MS analysis; type: ADME, organism-based; set-up: dose 10 mg/kg, time 0.25-24 hrs, route po
[19] = Half life in BALB/c mouse brain at 5 mg/kg, ip measured for 0.08 to 24 hrs by LC-MS/MS analysis; type: ADME, organism-based; settings: time 0.08-24 hrs
[20] = Half life in BALB/c mouse plasma at 10 mg/kg, po measured for 0.25 to 24 hrs by LC-MS/MS analysis; type: ADME, organism-based; settings: time 0.25-24 hrs
[21] = Half life in BALB/c mouse brain at 10 mg/kg, po measured for 0.25 to 24 hrs by LC-MS/MS analysis; type: ADME, organism-based; settings: time 0.25-24 hrs
[22] = Permeability coefficient in BALB/c mouse assessed as brain to plasma ratio at 5 mg/kg, ip measured for 0.08 to 24 hrs by LC-MS/MS analysis; type: ADME, organism-based; settings: time 0.08-24 hrs
[23] = Permeability in BALB/c mouse assessed as brain to plasma ratio at 10 mg/kg, po measured for 0.25 to 24 hrs by LC-MS/MS analysis; type: ADME, organism-based; settings: time 0.25-24 hrs
Mus musculus [24] = experiment: Prevention of TDP-43 phosphorylation level in Wild type mouse at lumbar region of spinal cord tissue at 5 mg/kg, ip qd for 30 days by Immunoblot assay; type: functional, organism-based; settings: time 30.0 day
Mus musculus [25] = experiment: Immunomodulatory effect in Prp-hTDP-43 (A315T) transgenic mouse assessed as reduction in iNOS expression in lumbar region of spinal cord at 5 mg/kg, ip qd for 30 days by Western blot analysis; type: functional, organism-based; settings: time 30.0 day
Mus musculus [26] = experiment: Immunomodulatory effect in Prp-hTDP-43 (A315T) transgenic mouse assessed as increase in […] expression in lumbar region of spinal cord at 5 mg/kg, ip qd for 30 days by western blot analysis; type: functional, organism-based; settings: time 30.0 day
Mus musculus [27] = experiment: Immunomodulatory effect in Prp-hTDP-43 (A315T) transgenic mouse assessed as decrease in Iba-1 immunoreactivity in microglial cells at 5 mg/kg, ip qd for 30 days by immunofluorescence analysis; type: functional, organism-based; settings: time 30.0 day
Mus musculus [28] = experiment: Immunomodulatory effect in Prp-hTDP-43 (A315T) transgenic mouse assessed as decrease in GFAP immunoreactivity in astrocytes at 5 mg/kg, ip qd for 30 days by immunofluorescence analysis; type: functional, organism-based; settings: time 30.0 day
Mus musculus [29] = experiment: Protection of neuron degeneration in Prp-hTDP-43 (A315T) transgenic mouse assessed as prevention of reduction in number of motor neurons in ventral horn of spinal cord at 5 mg/kg, ip qd for 30 days by Nissl staining based immunohistochemistry analysis; type: functional, organism-based; settings: time 30.0 day
Mus musculus [30] = experiment: Protection of neuron degeneration in Prp-hTDP-43 (A315T) transgenic mouse assessed as prevention of reduction in number of motor neurons in ventral horn of spinal cord at 5 mg/kg, ip qd for 30 days by choline acetyl transferase staining based immunohistochemistry analysis; type: functional, organism-based; settings: time 30.0 day
Tau-tubulin kinase 1 [31] = target: T1, Tau-tubulin kinase 1 (Homo sapiens, UniProt Q5TCY1); experiment: Inhibition of TTBK1 in sporadic ALS patient derived human lymphoblasts assessed as reduction in TDP-43 phosphorylation levels at 5 to 10 uM treated for 24 hrs by Western blot analysis; type: cell-based; settings: Lymphoblastoid cell, dose 5-10 µM
Tau-tubulin kinase 1 [32] = target: T1, Tau-tubulin kinase 1; experiment: Inhibition of TTBK1 in sporadic ALS patient derived human lymphoblasts assessed as reduction in cytosolic TDP-43 levels at 5 to 10 uM treated for 24 hrs by Western blot analysis; type: cell-based; settings: Lymphoblastoid cell, dose 5-10 µM
Tau-tubulin kinase 1 [33] = target: T1, Tau-tubulin kinase 1; experiment: Inhibition of TTBK1 in sporadic ALS patient derived human lymphoblasts assessed as recovery nuclear localization of TDP-43 levels at 5 to 10 uM treated for 24 hrs by Western blot analysis; type: cell-based; settings: Lymphoblastoid cell, dose 5-10 µM
Tau-tubulin kinase 1 [34] = target: T1, Tau-tubulin kinase 1; experiment: Inhibition of recombinant human TTBK1 in ethacrynic acid-treated human SH-SY5Y cells assessed as nuclear localization by measuring reduction in cytosolic TDP-43 accumulation at 5 uM preincubated for 1 hr followed by EA addition and further incubated for 24 hrs by confocal laser scanning microscopy; settings: time 25.0 hrs

T1 sequence (Q5TCY1 whole entry): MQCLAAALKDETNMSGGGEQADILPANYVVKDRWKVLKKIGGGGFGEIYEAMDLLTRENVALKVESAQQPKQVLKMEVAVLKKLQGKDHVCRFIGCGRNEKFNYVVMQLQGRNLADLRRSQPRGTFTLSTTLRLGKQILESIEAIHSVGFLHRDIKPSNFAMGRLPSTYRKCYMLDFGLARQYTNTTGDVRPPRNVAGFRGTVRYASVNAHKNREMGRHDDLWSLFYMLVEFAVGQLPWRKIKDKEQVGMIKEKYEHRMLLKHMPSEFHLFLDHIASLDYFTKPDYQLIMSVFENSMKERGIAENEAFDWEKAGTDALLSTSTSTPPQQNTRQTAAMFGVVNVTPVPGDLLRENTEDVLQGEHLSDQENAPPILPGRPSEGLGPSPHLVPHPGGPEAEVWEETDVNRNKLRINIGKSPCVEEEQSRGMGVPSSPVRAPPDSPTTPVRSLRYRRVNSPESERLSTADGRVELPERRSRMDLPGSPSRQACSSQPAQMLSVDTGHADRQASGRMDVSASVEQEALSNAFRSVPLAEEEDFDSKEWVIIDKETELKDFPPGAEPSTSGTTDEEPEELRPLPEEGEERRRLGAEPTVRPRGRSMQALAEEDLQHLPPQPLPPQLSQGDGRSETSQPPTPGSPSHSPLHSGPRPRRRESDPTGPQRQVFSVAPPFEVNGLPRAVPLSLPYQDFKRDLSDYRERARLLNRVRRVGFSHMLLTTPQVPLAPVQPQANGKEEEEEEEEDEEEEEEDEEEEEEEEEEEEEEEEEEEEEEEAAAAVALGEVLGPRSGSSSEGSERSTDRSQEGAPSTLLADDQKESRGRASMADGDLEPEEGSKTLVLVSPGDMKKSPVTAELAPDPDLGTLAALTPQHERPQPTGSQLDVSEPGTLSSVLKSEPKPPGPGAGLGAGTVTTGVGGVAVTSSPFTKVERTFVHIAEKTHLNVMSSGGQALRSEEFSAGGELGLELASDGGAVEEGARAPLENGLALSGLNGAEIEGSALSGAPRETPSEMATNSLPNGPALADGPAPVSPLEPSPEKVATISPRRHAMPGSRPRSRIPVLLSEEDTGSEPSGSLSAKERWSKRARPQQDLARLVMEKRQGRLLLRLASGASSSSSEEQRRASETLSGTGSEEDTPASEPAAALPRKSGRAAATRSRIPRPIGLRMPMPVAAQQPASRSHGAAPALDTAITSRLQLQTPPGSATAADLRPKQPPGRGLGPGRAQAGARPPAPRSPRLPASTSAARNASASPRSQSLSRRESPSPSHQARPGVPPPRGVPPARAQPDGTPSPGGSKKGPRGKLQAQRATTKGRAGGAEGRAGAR
Sequence of Tau tubulin kinase 1 (Rattus norvegicus) (A0A0G2JTK1 as listed by the source): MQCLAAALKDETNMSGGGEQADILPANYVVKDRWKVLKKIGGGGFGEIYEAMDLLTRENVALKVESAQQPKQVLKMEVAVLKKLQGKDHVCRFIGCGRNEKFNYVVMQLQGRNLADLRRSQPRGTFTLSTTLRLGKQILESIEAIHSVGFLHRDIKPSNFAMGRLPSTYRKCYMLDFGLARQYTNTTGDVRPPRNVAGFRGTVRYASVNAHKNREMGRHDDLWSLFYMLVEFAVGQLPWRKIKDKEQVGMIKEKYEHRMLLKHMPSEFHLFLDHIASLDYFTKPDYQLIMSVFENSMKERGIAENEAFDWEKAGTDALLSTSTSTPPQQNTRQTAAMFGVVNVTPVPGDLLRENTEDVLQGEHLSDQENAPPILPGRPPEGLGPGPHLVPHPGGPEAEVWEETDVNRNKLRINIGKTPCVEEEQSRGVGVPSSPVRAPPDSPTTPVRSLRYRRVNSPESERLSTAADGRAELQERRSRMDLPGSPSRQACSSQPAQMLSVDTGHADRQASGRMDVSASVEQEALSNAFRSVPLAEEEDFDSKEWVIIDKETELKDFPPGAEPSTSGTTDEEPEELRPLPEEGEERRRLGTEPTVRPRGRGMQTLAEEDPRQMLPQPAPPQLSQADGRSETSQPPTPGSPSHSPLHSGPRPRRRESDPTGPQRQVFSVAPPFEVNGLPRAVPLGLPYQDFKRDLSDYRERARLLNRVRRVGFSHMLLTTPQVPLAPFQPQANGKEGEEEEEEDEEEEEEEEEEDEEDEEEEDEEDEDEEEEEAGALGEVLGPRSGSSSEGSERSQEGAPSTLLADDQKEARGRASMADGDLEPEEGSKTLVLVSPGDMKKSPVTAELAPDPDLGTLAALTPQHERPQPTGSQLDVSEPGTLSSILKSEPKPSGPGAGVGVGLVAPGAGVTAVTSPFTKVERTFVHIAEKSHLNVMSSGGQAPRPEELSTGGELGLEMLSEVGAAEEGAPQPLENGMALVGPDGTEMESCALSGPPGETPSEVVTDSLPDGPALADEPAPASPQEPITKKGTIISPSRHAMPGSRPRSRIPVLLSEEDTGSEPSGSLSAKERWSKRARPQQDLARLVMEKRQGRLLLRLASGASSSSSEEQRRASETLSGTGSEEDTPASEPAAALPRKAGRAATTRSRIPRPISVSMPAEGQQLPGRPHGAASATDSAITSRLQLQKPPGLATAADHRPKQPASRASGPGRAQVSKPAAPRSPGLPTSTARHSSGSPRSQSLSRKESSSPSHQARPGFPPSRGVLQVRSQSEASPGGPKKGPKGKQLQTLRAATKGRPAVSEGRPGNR

Q: For Clc1ccc(Oc2ccc(Nc3ncnc4[nH]ccc34)cc2)cc1, which permeability [1] is on record?
A: Its permeability is “Permeable”.

Q: What about the Activity (SH-SY5Y [2]) of the same compound?
A: Its Activity is “Active”.

Q: What about the Activity (SH-SY5Y [3]) of the same compound?
A: Its Activity is “Active”.

Q: And the Activity (SH-SY5Y [4])?
A: The Activity was “Active”.

Q: And the inhibition [5]?
A: Its inhibition is “Active”.

Q: What about the Tmax [6] of the same compound?
A: The Tmax was 1 h.

Q: And the Tmax [7]?
A: The Tmax was 1 h.

Q: And the Tmax [8]?
A: Its Tmax is 2 h.

Q: What about the Tmax [9] of the same compound?
A: Its Tmax is 2 h.

Q: And the Cmax [10]?
A: The Cmax was 1430 ng/mL.

Q: And the Cmax [11]?
A: Its Cmax is 4170 ng/mL.

Q: And the Cmax [12]?
A: Its Cmax is 2270 ng/mL.

Q: What about the Cmax [13] of the same compound?
A: Its Cmax is 4920 ng/mL.

Q: What about the half-life [14] of the same compound?
A: Its half-life is 3.75 h.

Q: And the AUC(0-t) [15]?
A: The AUC(0-t) was 5960 ng·h/mL.

Q: And the AUC(0-t) [16]?
A: The AUC(0-t) was 15700 ng·h/mL.

Q: What about the AUC(0-t) [17] of the same compound?
A: Its AUC(0-t) is 18400 ng·h/mL.

Q: And the AUC(0-t) [18]?
A: The AUC(0-t) was 49200 ng·h/mL.

Q: And the half-life [19]?
A: Its half-life is 3.46 h.

Q: What about the half-life [20] of the same compound?
A: The half-life was 3.3 h.

Q: And the half-life [21]?
A: The half-life was 3.4 h.

Q: And the Kp [22]?
A: The Kp was 2.63.

Q: And the Kp [23]?
A: Its Kp is 2.67.

Q: What about the Activity (Mus musculus [24]) of the same compound?
A: The Activity was “Active”.

Q: What about the Activity (Mus musculus [25]) of the same compound?
A: Its Activity is “Active”.

Q: And the Activity (Mus musculus [26])?
A: Its Activity is “Active”.

Q: What about the Activity (Mus musculus [27]) of the same compound?
A: The Activity was “Active”.

Q: What about the Activity (Mus musculus [28]) of the same compound?
A: The Activity was “Active”.

Q: What about the Activity (Mus musculus [29]) of the same compound?
A: The Activity was “Active”.

Q: And the Activity (Mus musculus [30])?
A: The Activity was “Active”.

Q: What about the Activity (Tau-tubulin kinase 1 [31]) of the same compound?
A: Its Activity is “Active”.

Q: What about the Activity (Tau-tubulin kinase 1 [32]) of the same compound?
A: The Activity was “Active”.

Q: What about the Activity (Tau-tubulin kinase 1 [33]) of the same compound?
A: The Activity was “Active”.

Q: And the inhibition (Tau-tubulin kinase 1 [34])?
A: Its inhibition is “Active”.
